Laboratory results from publication PMC8490327 (Environment international, 2021).

Assays:
[1] = Relative hepatic PFAS levels; assay type: in vivo, mouse; settings: liver; for Relative Hepatic PFAS Levels: Fold Change PFAS Female vs. PFAS Male / Relative Hepatic PFAS Levels: Fold Change PFAS vs. Vehicle: 12 weeks of the 5-PFAS mixture, 2 mg/L each in drinking water; for Hepatic level, fold increase in PFAS-exposed females compared to vehicle / Hepatic level, fold increase in PFAS-exposed males compared to vehicle: 12 weeks
[2] = Relative plasma PFAS levels; assay type: in vivo, mouse; settings: for Relative Plasma PFAS Levels: Fold Change PFAS Female vs. PFAS Male / Relative Plasma PFAS Levels: Fold Change PFAS vs. Vehicle: 12 weeks of the 5-PFAS mixture, 2 mg/L each in drinking water; for Plasma level, fold increase in PFAS-exposed females compared to vehicle / Plasma level, fold increase in PFAS-exposed males compared to vehicle: 12 weeks
human PPARα = settings: ref Behr et al. 2020b, cited from earlier work; for In vitro activation of human PPARα: reporter gene assays; for PPARα activation compared to the positive control GW7647: even at concentrations 250 times greater than GW7647
[3] = ref Olsen et al. 2007; cited from earlier work
[4] = Absolute quantitation of circulating PFAS; assay type: in vivo, mouse; settings: for Absolute Plasma PFAS Levels: Fold Change PFAS Female vs. PFAS Male / Absolute Plasma PFAS Levels: PFAS Female Average Concentration / Absolute Plasma PFAS Levels: PFAS male Average Concentration / Absolute Plasma PFAS Levels: Overall Average Concentration: 12 weeks; for concentration at 12 weeks: C57BL/6J, mouse, plasma, oral; for Absolute Plasma PFAS Levels: PFAS Female Average Concentration: exposed females; for Absolute Plasma PFAS Levels: PFAS Female Average Concentration / Absolute Plasma PFAS Levels: PFAS male Average Concentration: 2 mg/L each in drinking water, n=3; for Absolute Plasma PFAS Levels: PFAS male Average Concentration: exposed males; for Absolute Plasma PFAS Levels: Overall Average Concentration: exposed mice of both sexes
[5] = cited from earlier work; for Median serum concentration: general U.S. population, NHANES 2003-2004, ref Nelson et al. 2010
humans = settings: cited from earlier work

Compound | Relative Hepatic PFAS Levels: Fold Change PFAS Female vs. PFAS Male [1] | Relative Hepatic PFAS Levels: Fold Change PFAS vs. Vehicle [1] | Hepatic level, fold increase in PFAS-exposed females compared to vehicle [1] | Hepatic level, fold increase in PFAS-exposed males compared to vehicle [1] | Relative Plasma PFAS Levels: Fold Change PFAS Female vs. PFAS Male [2] | Plasma level, fold increase in PFAS-exposed females compared to vehicle [2] | Plasma level, fold increase in PFAS-exposed males compared to vehicle [2] | In vitro activation of human PPARα (human PPARα) | Biological half-life in human serum [3] | Absolute Plasma PFAS Levels: Fold Change PFAS Female vs. PFAS Male [4] | concentration at 12 weeks ([4]; both) | PPARα activation compared to the positive control GW7647 (human PPARα) | Relative Plasma PFAS Levels: Fold Change PFAS vs. Vehicle [2] | Absolute Plasma PFAS Levels: PFAS Female Average Concentration [4] | Absolute Plasma PFAS Levels: PFAS male Average Concentration [4] | Absolute Plasma PFAS Levels: Overall Average Concentration [4] | Median serum concentration [5] | also measured
O=S(=O)(O)C(F)(F)C(F)(F)C(F)(F)C(F)(F)C(F)(F)C(F)(F)F [PFHxS] | 1.30 fold | 705.46 fold | 2035.7 fold | 387.1 fold | 0.96 fold | 6491 fold | 5414.2 fold | capable of PPARα activation | ~8.5 years | 0.9 fold | 23800 ng/mL |  |  |  |  |  |  | 
N.O=C(O)C(F)(OC(F)(F)C(F)(F)C(F)(F)F)C(F)(F)F (stereo not shown) [GenX] |  |  |  |  |  |  |  | capable of PPARα activation |  | 1.8 fold | 140 ng/mL | 60-90% |  |  |  |  |  | concentration at 12 weeks [4]: ~100 ng/g; Serum level in a population exposed to PFAS-contaminated water ([5]; not detected above limit of detection, ref Kotlarz et al. 2020): < 2 ng/mL
O=S(=O)(O)C(F)(F)C(F)(F)C(F)(F)C(F)(F)C(F)(F)C(F)(F)C(F)(F)C(F)(F)F [PFOS, Perfluorooctane sulfonate] | 0.92 fold | 188.03 fold | 386.3 fold | 127.2 fold | 0.77 fold | 545.2 fold | 708.9 fold | capable of PPARα activation | ~5 years | 0.6 fold |  |  | 627.07 fold | 13.8 ± 2.3 µg/mL | 22.5 ± 4.1 µg/mL | 18.1 ± 5.6 µg/mL | 21 ng/mL | 
O=C(O)C(F)(F)C(F)(F)C(F)(F)C(F)(F)C(F)(F)C(F)(F)C(F)(F)F [PFOA, perfluorooctanoic acid] | 2.43 fold | 1513.94 fold | 4693.4 fold | 571.9 fold | 1.96 fold | 10883.6 fold | 6936.8 fold | capable of PPARα activation | around 4 years | 3.2 fold | 15400 ng/mL | 60-90% | 10270.75 fold | 23.4 ± 9.0 µg/mL | 7.3 ± 1.8 µg/mL |  | 3.9 ng/mL | Predicted increase in total cholesterol from lowest to highest decile of PFOA (humans; exposed communities, ref Steenland et al. 2009): 11 to 12 mg/dL; Increase in total cholesterol associated with 1 ppm increase in serum PFOA (humans; occupationally exposed populations, ref Sakr et al. 2007): 1.06 mg/dL; Average serum concentration ([5]; populations occupationally exposed to PFOA, ref Sakr et al. 2007): 1.13 µg/mL
O=C(O)C(F)(F)C(F)(F)C(F)(F)C(F)(F)C(F)(F)C(F)(F)C(F)(F)C(F)(F)F [PFNA, perfluorononanoic acid] |  |  |  |  |  |  |  |  |  | 0.8 fold |  |  |  | 33.7 ± 7.6 µg/mL | 40.9 ± 10.6 µg/mL | 37.3 ± 9.1 µg/mL |  | 
